Broadly, the melting point is the temperature of the solid-liquid transition.

On to `O=C(c1ccc(C2CCCCC2)cc1)N1Cc2cccn2Cc2ccccc21` [Example 4, 10-(4-Cyclohexyl-benzoyl)-10,11-dihydro-5H-pyrrolo[2,1-c][1,4]benzodiazepine], for which the melting point lay in the range of 127 to 129 °C.

Source of the values: patent US7202239B2, “Cyclohexylphenyl carboxamides tocolytic oxytocin receptor antagonists” (Wyeth, priority 2001, dated 2007).
